Data from the NIST ThermoML archive (doi:10.1021/acs.jced.5b00989).

Assay: molar heat capacity at constant pressure; xn = mol fraction of the nth substance listed
Details: 100 kPa, Liquid, Small sample (50 mg) DSC

O=C(CO)[C@@H](O)[C@H](O)[C@H](O)CO [D-fructose] + C[N+](C)(C)CCO.[Cl-]
x2 = 0.67
Details | molar heat capacity at constant pressure [J/K/mol]
298.15 K | 311.5
300.65 K | 313.8
303.15 K | 316.7
305.65 K | 319.4
308.15 K | 322
310.65 K | 324.2
313.15 K | 326.2
315.65 K | 328.3
318.15 K | 330.5
320.65 K | 332.6
323.15 K | 334.1
325.65 K | 334.9
328.15 K | 335.8
330.65 K | 336.1
333.15 K | 335.8
335.65 K | 335.7
338.15 K | 335.2
340.65 K | 334.7
343.15 K | 335.2
345.65 K | 335.8
348.15 K | 336.6
350.65 K | 337.7
353.15 K | 340.1

C[N+](C)(C)CCO.[Cl-] [choline chloride] + O=C[C@H](O)[C@@H](O)[C@H](O)[C@H](O)CO
x1 = 0.67
Details | molar heat capacity at constant pressure [J/K/mol]
298.15 K | 327.5
300.65 K | 329.1
303.15 K | 330.7
305.65 K | 332.4
308.15 K | 334.5
310.65 K | 336.7
313.15 K | 338.6
315.65 K | 340.6
318.15 K | 342.5
320.65 K | 344.5
323.15 K | 346
325.65 K | 347.2
328.15 K | 348.4
330.65 K | 349.5
333.15 K | 350.6
335.65 K | 350.9
338.15 K | 351.4
340.65 K | 352
343.15 K | 352.6
345.65 K | 353.8
348.15 K | 354.2
350.65 K | 354.4
353.15 K | 356.3

C[N+](C)(C)CCO.[Cl-] [choline chloride] + Oc1ccccc1
x1 = 0.25
Details | molar heat capacity at constant pressure [J/K/mol]
298.15 K | 219.3
300.65 K | 220.3
303.15 K | 221.2
305.65 K | 222.3
308.15 K | 223.3
310.65 K | 224.2
313.15 K | 225.1
315.65 K | 225.8
318.15 K | 226.6
320.65 K | 227.1
323.15 K | 227.9
325.65 K | 228.6
328.15 K | 229.3
330.65 K | 230.2
333.15 K | 231.1
335.65 K | 231.9
338.15 K | 232.6
340.65 K | 233.1
343.15 K | 233.5
345.65 K | 234.3
348.15 K | 234.5
350.65 K | 235
353.15 K | 236.8

O=C(O)CC(O)(CC(=O)O)C(=O)O [citric acid] + C[N+](C)(C)CCO.[Cl-]
x2 = 0.33
Details | molar heat capacity at constant pressure [J/K/mol]
298.15 K | 422
300.65 K | 422.9
303.15 K | 424
305.65 K | 425.2
308.15 K | 426.1
310.65 K | 427.2
313.15 K | 428.7
315.65 K | 429.8
318.15 K | 430.6
320.65 K | 431.9
323.15 K | 433
325.65 K | 433.5
328.15 K | 435.4
330.65 K | 436.7
333.15 K | 437.5
335.65 K | 438.6
338.15 K | 439.7
340.65 K | 440.6
343.15 K | 442.1
345.65 K | 446.1
348.15 K | 447.2
350.65 K | 446.8
353.15 K | 449.4

O=C(O)C(=O)O [ethanedioic acid] + C[N+](C)(C)CCO.[Cl-]
x2 = 0.33
Details | molar heat capacity at constant pressure [J/K/mol]
298.15 K | 270.8
300.65 K | 271.8
303.15 K | 272.1
305.65 K | 272.7
308.15 K | 273.6
310.65 K | 274.6
313.15 K | 275.4
315.65 K | 276.3
318.15 K | 276.8
320.65 K | 277
323.15 K | 277.1
325.65 K | 277.4
328.15 K | 277.8
330.65 K | 278.3
333.15 K | 278.7
335.65 K | 279.6
338.15 K | 280
340.65 K | 280.6
343.15 K | 281.2
345.65 K | 281.7
348.15 K | 281.9
350.65 K | 282.2
353.15 K | 282.9

C[P+](c1ccccc1)(c1ccccc1)c1ccccc1.[Br-] [methyltriphenylphosphonium bromide] + O=C(O)CC(=O)O
x1 = 0.4
Details | molar heat capacity at constant pressure [J/K/mol]
298.15 K | 336.9
300.65 K | 338
303.15 K | 339.2
305.65 K | 340
308.15 K | 341
310.65 K | 342.1
313.15 K | 343.1
315.65 K | 343.9
318.15 K | 345.2
320.65 K | 346
323.15 K | 346.6
325.65 K | 347.4
328.15 K | 348.4
330.65 K | 350.1
333.15 K | 350.3
335.65 K | 350.7
338.15 K | 351.3
340.65 K | 351.5
343.15 K | 351.9
345.65 K | 352.1
348.15 K | 352.5
350.65 K | 354
353.15 K | 354.2

C[P+](c1ccccc1)(c1ccccc1)c1ccccc1.[Br-] [methyltriphenylphosphonium bromide] + OCC(O)CO
x1 = 0.25
Details | molar heat capacity at constant pressure [J/K/mol]
298.15 K | 328.5
300.65 K | 329.6
303.15 K | 330.5
305.65 K | 331.6
308.15 K | 332.7
310.65 K | 333.7
313.15 K | 334.8
315.65 K | 335.8
318.15 K | 336.5
320.65 K | 338.1
323.15 K | 339.4
325.65 K | 339.6
328.15 K | 340.8
330.65 K | 341.8
333.15 K | 342.6
335.65 K | 343.5
338.15 K | 344.6
340.65 K | 345.7
343.15 K | 346.7
345.65 K | 347.8
348.15 K | 347.9
350.65 K | 348.3
353.15 K | 350.2

C[P+](c1ccccc1)(c1ccccc1)c1ccccc1.[Br-] [methyltriphenylphosphonium bromide] + OCCO
x1 = 0.2
Details | molar heat capacity at constant pressure [J/K/mol]
298.15 K | 237.6
300.65 K | 238.6
303.15 K | 239.4
305.65 K | 240.8
308.15 K | 241.6
310.65 K | 242.4
313.15 K | 243.4
315.65 K | 244.5
318.15 K | 245.2
320.65 K | 246.1
323.15 K | 247.2
325.65 K | 247.9
328.15 K | 248.9
330.65 K | 249.8
333.15 K | 250.8
335.65 K | 251.8
338.15 K | 252.7
340.65 K | 253.5
343.15 K | 254.3
345.65 K | 255
348.15 K | 255.5
350.65 K | 255
353.15 K | 256.7

O=C(O)CC(=O)O [propanedioic acid] + CCCC[N+](CCCC)(CCCC)CCCC.[Cl-]
x2 = 0.25
Details | molar heat capacity at constant pressure [J/K/mol]
298.2 K | 299.8
300.7 K | 302.6
303.2 K | 305.7
305.7 K | 309.4
308.2 K | 313.3
310.7 K | 316.9
313.2 K | 320.6
315.7 K | 323.7
318.2 K | 324.9
320.7 K | 328.8
323.2 K | 333.3
325.7 K | 335.9
328.2 K | 337.5
330.7 K | 339.2
333.2 K | 339.5
335.7 K | 340
338.2 K | 340.2
340.7 K | 340.6
343.2 K | 341.1
345.7 K | 341.2
348.2 K | 341.7
350.7 K | 342
353.2 K | 342.8

O=C(O)CC(=O)O [propanedioic acid] + C[N+](C)(C)CCO.[Cl-]
x2 = 0.5
Details | molar heat capacity at constant pressure [J/K/mol]
298.15 K | 226.9
300.65 K | 227.6
303.15 K | 228.3
305.65 K | 228.8
308.15 K | 229.4
310.65 K | 230.2
313.15 K | 230.6
315.65 K | 231.1
318.15 K | 231.7
320.65 K | 232.3
323.15 K | 232.7
325.65 K | 233.2
328.15 K | 233.8
330.65 K | 234.3
333.15 K | 234.9
335.65 K | 235.8
338.15 K | 237
340.65 K | 238
343.15 K | 238.4
345.65 K | 238.9
348.15 K | 239.5
350.65 K | 239.9
353.15 K | 240.8

CCCC[N+](CCCC)(CCCC)CCCC.[Cl-] [tetrabutylammonium chloride] + NC(N)=O
x1 = 0.8
Details | molar heat capacity at constant pressure [J/K/mol]
308.2 K | 590
310.7 K | 593
313.2 K | 598
315.7 K | 601.2
318.2 K | 602.6
320.7 K | 600.6
323.2 K | 601.5
325.7 K | 602.9
328.2 K | 601.7
330.7 K | 603
333.2 K | 604.9
335.7 K | 605.1
338.2 K | 603.2
340.7 K | 604
343.2 K | 604.4
345.7 K | 605.2
348.2 K | 604.8
350.7 K | 605.4
353.2 K | 605.9

CCCC[N+](CCCC)(CCCC)CCCC.[Cl-] [tetrabutylammonium chloride] + OCC(O)CO
x1 = 0.17
Details | molar heat capacity at constant pressure [J/K/mol]
298.2 K | 281.2
300.7 K | 282.5
303.2 K | 283.9
305.7 K | 285.4
308.2 K | 286.9
310.7 K | 288.1
313.2 K | 289.4
315.7 K | 290.7
318.2 K | 292
320.7 K | 293.4
323.2 K | 294.5
325.7 K | 296.1
328.2 K | 297.4
330.7 K | 298.9
333.2 K | 300.4
335.7 K | 301.9
338.2 K | 303.2
340.7 K | 304.6
343.2 K | 305.7
345.7 K | 306.9
348.2 K | 307.8
350.7 K | 308.6
353.2 K | 310.9

CCCC[N+](CCCC)(CCCC)CCCC.[Cl-] [tetrabutylammonium chloride] + OCCO
x1 = 0.25
Details | molar heat capacity at constant pressure [J/K/mol]
298.2 K | 288.3
300.7 K | 289.6
303.2 K | 291
305.7 K | 292.2
308.2 K | 293.2
310.7 K | 294.5
313.2 K | 295.8
315.7 K | 296.8
318.2 K | 297.9
320.7 K | 299.5
323.2 K | 300.5
325.7 K | 301.2
328.2 K | 302.4
330.7 K | 303.5
333.2 K | 304.8
335.7 K | 305.9
338.2 K | 306.9
340.7 K | 307.7
343.2 K | 308.5
345.7 K | 309.1
348.2 K | 309.6
350.7 K | 310.6
353.2 K | 312.6

CCCC[N+](CCCC)(CCCC)CCCC.[Cl-] [tetrabutylammonium chloride] + OCCOCCOCCO
x1 = 0.5
Details | molar heat capacity at constant pressure [J/K/mol]
298.2 K | 445
300.7 K | 447.8
303.2 K | 448.9
305.7 K | 450.6
308.2 K | 452.3
310.7 K | 454.2
313.2 K | 456.1
315.7 K | 457.4
318.2 K | 458.7
320.7 K | 460.2
323.2 K | 461.9
325.7 K | 463
328.2 K | 464.5
330.7 K | 466.2
333.2 K | 467.7
335.7 K | 469.2
338.2 K | 471.1
340.7 K | 472.6
343.2 K | 473.7
345.7 K | 475.2
348.2 K | 475.6
350.7 K | 476
353.2 K | 479.7
